Measured values as given in patent publication US10870647B2, “Imidazopyridine derivative, method for preparing same, and pharmaceutical composition containing same as active ingredient for preventing or treating cancer” (DAEGU-GYEONGBUK MEDICAL INNOVATION FOUNDATION, priority 2016, dated 2020).
Read-outs that look alike come from different tables or passages of the source.

What was measured:
Assay in all cases: Kinase selectivity, scanMAX Kinase assay panel (DiscoverX), % control at 1 uM
Assay type in all cases: binding
[1] = molecular target: T1, scanMAX Kinase assay panel (Homo sapiens, UniProt P27037); settings: ACVR2A; 1 uM; read-out: Percent Control (%)
T1 construct: purchased DiscoverX
How it was run: (§1)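 1 uM cpd (DMSO) per kinase; % ctrl = [cpd − pos ctrl]/[neg ctrl − pos ctrl] × 100; hit if <35.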

[2] = molecular target: T2, scanMAX Kinase assay panel (Homo sapiens, UniProt P33981); settings: TTK; 1 uM; read-out: Percent Control (%)
T2 construct: purchased DiscoverX
T2 sequence (P33981 1-857): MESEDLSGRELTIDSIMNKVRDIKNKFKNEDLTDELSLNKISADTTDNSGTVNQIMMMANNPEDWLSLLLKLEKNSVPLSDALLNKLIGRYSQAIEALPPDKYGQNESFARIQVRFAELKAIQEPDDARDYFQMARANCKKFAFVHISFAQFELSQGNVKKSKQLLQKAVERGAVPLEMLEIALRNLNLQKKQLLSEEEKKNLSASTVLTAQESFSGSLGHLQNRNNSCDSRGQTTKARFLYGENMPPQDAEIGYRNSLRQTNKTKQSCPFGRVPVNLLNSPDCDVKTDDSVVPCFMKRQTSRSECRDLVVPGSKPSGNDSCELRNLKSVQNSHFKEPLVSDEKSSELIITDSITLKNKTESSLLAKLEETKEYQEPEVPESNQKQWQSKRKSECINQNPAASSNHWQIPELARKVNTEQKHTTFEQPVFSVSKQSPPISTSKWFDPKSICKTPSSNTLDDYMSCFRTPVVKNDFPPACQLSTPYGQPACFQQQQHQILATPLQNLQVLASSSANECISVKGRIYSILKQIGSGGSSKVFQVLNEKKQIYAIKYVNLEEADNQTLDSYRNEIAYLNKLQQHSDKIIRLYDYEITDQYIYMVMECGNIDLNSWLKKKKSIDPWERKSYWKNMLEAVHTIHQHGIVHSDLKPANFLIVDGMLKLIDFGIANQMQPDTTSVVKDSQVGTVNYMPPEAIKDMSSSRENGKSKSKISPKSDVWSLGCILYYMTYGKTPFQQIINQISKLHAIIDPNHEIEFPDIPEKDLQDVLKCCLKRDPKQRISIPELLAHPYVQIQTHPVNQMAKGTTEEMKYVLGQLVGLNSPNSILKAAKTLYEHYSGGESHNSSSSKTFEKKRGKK
How it was run: as §1

[3] = molecular target: T3, scanMAX Kinase assay panel (Homo sapiens, UniProt Q14680); settings: MELK; 1 uM; read-out: Percent Control (%)
T3 construct: purchased DiscoverX
How it was run: as §1

[4] = molecular target: T4, scanMAX Kinase assay panel (Homo sapiens, UniProt Q15418); settings: 1 uM, read-out: Percent Control (%)
T4 construct: purchased DiscoverX
How it was run: as §1

[5] = molecular target: T5, scanMAX Kinase assay panel (Homo sapiens, UniProt Q15759); settings: p38-beta; 1 uM; read-out: Percent Control (%)
T5 construct: purchased DiscoverX
How it was run: as §1

[6] = molecular target: T6, scanMAX Kinase assay panel (Homo sapiens, UniProt Q86UX6); settings: YANK3; 1 uM; read-out: Percent Control (%)
T6 construct: purchased DiscoverX
How it was run: as §1

[7] = molecular target: T7, scanMAX Kinase assay panel (Homo sapiens, UniProt Q8NEB9); settings: VPS34; 1 uM; read-out: Percent Control (%)
T7 construct: purchased DiscoverX
How it was run: as §1

[8] = molecular target: T8, scanMAX Kinase assay panel (Homo sapiens, UniProt Q8TD08); settings: ERK8; 1 uM; read-out: Percent Control (%)
T8 construct: purchased DiscoverX
T8 sequence (Q8TD08 1-544): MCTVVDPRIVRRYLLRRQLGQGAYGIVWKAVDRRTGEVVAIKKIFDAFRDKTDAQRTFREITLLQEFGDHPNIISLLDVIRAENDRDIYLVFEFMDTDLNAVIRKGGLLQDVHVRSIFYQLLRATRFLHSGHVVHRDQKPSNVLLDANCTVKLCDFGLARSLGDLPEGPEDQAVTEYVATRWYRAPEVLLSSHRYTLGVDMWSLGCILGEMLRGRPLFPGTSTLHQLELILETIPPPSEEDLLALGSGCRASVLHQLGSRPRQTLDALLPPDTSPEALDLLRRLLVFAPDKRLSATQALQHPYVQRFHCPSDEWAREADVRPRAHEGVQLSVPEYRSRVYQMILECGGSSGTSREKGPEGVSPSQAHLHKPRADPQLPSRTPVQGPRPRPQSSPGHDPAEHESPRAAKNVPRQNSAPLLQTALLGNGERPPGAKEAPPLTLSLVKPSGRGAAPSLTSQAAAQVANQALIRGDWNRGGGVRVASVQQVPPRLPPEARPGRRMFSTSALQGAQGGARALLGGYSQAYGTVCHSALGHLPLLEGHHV
How it was run: as §1

[9] = molecular target: T9, scanMAX Kinase assay panel (Homo sapiens, UniProt Q9P286); settings: PAK7; 1 uM; read-out: Percent Control (%)
T9 construct: purchased DiscoverX
How it was run: as §1

T7 sequence (Q8NEB9 whole entry): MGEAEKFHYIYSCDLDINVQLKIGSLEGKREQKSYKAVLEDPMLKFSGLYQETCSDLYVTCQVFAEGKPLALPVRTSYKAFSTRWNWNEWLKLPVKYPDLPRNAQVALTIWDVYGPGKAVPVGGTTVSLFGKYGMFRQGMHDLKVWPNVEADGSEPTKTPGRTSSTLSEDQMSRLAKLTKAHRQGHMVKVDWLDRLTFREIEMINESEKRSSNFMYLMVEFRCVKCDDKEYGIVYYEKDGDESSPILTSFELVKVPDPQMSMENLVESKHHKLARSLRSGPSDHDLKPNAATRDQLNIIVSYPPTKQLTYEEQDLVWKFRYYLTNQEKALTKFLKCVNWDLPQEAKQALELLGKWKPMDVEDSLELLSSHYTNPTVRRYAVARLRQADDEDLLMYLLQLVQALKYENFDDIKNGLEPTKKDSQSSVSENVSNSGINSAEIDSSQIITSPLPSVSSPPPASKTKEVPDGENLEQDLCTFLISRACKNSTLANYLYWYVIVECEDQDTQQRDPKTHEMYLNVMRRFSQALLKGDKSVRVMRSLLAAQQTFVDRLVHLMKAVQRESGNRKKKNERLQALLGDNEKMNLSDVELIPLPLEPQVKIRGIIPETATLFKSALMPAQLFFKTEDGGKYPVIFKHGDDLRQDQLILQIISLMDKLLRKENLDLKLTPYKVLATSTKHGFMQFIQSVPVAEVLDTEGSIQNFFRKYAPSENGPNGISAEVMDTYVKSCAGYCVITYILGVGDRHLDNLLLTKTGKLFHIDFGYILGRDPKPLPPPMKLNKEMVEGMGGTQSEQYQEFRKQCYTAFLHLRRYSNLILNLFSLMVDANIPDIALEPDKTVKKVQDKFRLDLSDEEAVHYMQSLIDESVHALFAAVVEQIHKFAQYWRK
T1 sequence (P27037 20-513): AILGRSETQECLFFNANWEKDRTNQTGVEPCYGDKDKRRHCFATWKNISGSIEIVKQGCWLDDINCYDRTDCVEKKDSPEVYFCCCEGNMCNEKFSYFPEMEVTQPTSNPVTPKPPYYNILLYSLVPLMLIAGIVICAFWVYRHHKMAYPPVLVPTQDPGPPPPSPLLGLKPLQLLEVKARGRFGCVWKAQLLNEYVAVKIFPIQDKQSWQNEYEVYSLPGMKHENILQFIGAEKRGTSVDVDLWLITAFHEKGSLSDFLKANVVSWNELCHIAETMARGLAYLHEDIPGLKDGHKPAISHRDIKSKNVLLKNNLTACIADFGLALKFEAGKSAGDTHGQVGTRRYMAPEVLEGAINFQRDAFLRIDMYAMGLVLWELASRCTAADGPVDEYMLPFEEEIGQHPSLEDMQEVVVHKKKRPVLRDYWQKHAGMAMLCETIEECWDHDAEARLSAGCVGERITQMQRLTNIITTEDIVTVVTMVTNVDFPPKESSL
T5 sequence (Q15759 whole entry): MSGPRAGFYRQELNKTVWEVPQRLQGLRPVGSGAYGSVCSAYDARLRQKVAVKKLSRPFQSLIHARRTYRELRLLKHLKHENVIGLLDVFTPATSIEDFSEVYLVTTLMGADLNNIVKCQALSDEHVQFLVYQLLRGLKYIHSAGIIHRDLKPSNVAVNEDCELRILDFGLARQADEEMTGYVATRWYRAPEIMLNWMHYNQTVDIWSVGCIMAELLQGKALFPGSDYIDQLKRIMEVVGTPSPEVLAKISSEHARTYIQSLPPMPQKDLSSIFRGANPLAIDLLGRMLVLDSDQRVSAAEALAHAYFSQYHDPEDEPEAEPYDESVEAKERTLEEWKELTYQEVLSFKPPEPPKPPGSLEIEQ
T3 sequence (Q14680 whole entry): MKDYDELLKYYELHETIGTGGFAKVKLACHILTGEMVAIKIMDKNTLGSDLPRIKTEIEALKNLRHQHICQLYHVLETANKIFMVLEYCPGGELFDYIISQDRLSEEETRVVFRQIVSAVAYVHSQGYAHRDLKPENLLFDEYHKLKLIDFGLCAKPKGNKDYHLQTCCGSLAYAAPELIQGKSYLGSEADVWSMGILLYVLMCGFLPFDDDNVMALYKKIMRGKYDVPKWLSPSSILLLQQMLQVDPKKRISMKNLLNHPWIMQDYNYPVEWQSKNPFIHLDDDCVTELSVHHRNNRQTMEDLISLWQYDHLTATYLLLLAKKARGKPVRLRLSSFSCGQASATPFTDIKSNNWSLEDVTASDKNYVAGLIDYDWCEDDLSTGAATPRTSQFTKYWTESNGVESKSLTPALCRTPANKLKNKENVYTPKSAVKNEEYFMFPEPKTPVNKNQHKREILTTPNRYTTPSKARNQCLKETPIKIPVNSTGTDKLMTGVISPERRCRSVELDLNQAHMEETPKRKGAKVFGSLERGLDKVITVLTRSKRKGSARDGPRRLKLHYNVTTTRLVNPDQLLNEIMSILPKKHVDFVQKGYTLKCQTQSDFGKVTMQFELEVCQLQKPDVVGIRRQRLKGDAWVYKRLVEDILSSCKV
T6 sequence (Q86UX6 whole entry): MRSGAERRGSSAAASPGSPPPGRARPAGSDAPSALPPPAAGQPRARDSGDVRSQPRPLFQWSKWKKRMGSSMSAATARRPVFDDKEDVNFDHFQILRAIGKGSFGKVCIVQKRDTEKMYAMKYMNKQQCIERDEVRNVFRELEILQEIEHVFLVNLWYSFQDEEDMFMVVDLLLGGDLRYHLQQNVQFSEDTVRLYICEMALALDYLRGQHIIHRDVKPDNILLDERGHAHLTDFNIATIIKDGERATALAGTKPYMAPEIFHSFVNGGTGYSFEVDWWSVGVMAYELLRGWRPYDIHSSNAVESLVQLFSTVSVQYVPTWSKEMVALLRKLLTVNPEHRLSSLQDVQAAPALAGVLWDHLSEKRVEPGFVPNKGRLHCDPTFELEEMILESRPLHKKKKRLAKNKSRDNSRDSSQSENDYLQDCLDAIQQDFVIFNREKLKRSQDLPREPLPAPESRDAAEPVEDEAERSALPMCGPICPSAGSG
T9 sequence (Q9P286 whole entry): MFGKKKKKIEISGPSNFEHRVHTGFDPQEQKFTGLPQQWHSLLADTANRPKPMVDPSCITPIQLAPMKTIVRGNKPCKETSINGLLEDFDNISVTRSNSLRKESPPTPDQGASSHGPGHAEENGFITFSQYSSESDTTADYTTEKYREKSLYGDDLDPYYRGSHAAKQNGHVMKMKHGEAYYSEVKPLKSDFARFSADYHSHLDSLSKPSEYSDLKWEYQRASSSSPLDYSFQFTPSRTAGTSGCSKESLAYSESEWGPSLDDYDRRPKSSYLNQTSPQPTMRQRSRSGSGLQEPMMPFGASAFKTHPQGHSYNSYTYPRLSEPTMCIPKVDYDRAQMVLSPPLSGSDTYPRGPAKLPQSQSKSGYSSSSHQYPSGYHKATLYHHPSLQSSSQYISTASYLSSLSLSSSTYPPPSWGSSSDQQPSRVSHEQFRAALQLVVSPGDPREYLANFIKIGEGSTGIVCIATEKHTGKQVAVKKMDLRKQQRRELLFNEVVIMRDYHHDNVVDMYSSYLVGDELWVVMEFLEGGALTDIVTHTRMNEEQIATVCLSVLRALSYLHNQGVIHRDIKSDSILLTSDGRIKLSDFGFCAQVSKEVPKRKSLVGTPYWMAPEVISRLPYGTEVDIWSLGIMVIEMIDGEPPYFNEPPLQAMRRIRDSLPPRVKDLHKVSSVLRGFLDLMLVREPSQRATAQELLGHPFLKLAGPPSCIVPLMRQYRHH
T4 sequence (Q15418 whole entry): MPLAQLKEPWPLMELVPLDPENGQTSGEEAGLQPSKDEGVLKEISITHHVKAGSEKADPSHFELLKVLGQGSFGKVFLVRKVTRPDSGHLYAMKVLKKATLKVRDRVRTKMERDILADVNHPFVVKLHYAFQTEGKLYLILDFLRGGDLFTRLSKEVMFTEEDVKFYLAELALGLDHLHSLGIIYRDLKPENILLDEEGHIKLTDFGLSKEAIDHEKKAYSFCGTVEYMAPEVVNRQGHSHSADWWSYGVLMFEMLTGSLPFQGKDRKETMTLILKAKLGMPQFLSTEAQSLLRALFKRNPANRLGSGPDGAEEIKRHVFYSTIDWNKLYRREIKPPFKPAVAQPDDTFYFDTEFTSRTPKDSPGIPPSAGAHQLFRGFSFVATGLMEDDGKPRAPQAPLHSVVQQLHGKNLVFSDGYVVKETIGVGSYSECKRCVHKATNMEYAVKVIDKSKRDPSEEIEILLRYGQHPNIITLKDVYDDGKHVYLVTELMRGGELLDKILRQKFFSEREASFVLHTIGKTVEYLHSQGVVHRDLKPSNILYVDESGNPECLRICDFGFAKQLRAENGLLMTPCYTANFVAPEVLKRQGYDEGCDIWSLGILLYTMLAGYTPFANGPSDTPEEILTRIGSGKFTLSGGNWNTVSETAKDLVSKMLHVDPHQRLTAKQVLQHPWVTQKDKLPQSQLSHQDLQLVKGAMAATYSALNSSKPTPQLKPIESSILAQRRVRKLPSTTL

SMILES	remaining binding at 1 µM [1] [%]	remaining binding at 1 µM [2] [%]	remaining binding at 1 µM [3] [%]	remaining binding at 1 µM ([4]; RSK1 (Kin.Dom.1-N-terminal)) [%]	remaining binding at 1 µM ([4]; RSK1 (Kin.Dom.2-C-terminal)) [%]	remaining binding at 1 µM [5] [%]	remaining binding at 1 µM [6] [%]	remaining binding at 1 µM [7] [%]	remaining binding at 1 µM [8] [%]	remaining binding at 1 µM [9] [%]
Cc1ccc(C(=O)Nc2ccc(CN3CCN(C)CC3)c(C(F)(F)F)c2)cc1C#Cc1cnc2c(Nc3cnn(C)c3)cccn12 [Example 1, 4-methyl-3-((8-((1-methyl-1H-pyrazol-4-yl)amino)imidazo[1,2-a]pyridin-3-yl)ethynyl)-N-(4-((4-methylpiperazin-1-yl)methyl)-3-(trifluoromethyl)phenyl)benzamide]	95	12	9	60	64	0	74	100	29	100
Cc1cn(-c2cc(NC(=O)c3ccc(C)c(C#Cc4cnc5c(Nc6cnn(C)c6)cccn45)c3)cc(C(F)(F)F)c2)cn1 [Example 12, 4-methyl-N-(3-(4-methyl-1H-imidazol-1-yl)-5-(trifluoromethyl)phenyl)-3-((8-((1-methyl-1H-pyrazol-4-yl)amino)imidazo[1,2-a]pyridin-3-yl)ethynyl)benzamide]	100	70	98	79	69	6	81	96	71	100
Cc1ccc(NC(=O)C2(C(=O)Nc3ccc(F)cc3)CC2)cc1C#Cc1cnc2c(Nc3cnn(C(C)C)c3)cccn12 [Example 78]	100	100	91	100	95	88	99	80	87	100
